Laboratory results: ChEMBL document CHEMBL1128249, “2,4-Diamino-5-substituted-quinazolines as inhibitors of a human dihydrofolate reductase with a site-directed mutation at position 22 and of the dihydrofolate reductases from Pneumocystis carinii and Toxoplasma gondii” (J Med Chem, 1995)

Tests used:
Dihydrofolate reductase [1] = biological target: Dihydrofolate reductase (Homo sapiens, UniProt P00374); assay: Inhibitory activity against Leu22-Phe mutant human Dihydrofolate reductase
Dihydrofolate reductase [2] = biological target: T1, Dihydrofolate reductase (Homo sapiens, UniProt P00374); assay: Inhibitory compound against Wild-type human DHFR.
T1 sequence (P00374 whole entry): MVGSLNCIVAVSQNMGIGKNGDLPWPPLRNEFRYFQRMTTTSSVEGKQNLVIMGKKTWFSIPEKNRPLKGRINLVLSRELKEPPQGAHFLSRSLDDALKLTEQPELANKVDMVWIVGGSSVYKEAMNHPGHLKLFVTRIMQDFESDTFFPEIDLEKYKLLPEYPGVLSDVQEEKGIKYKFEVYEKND

Dihydrofolate reductase [3] = biological target: T2, Dihydrofolate reductase (Pneumocystis carinii, UniProt P16184)
T2 sequence (P16184 whole entry): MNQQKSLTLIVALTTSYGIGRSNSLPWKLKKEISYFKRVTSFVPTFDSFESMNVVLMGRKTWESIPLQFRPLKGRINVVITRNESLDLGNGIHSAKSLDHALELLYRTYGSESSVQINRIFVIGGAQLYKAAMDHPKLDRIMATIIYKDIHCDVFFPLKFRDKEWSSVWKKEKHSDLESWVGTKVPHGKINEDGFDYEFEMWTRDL
Description: Inhibitory activity against Pneumocystis carinii Dihydrofolate reductase

Dihydrofolate reductase [4] = biological target: T3, Dihydrofolate reductase (Rattus norvegicus, UniProt Q920D2)
T3 sequence (Q920D2 whole entry): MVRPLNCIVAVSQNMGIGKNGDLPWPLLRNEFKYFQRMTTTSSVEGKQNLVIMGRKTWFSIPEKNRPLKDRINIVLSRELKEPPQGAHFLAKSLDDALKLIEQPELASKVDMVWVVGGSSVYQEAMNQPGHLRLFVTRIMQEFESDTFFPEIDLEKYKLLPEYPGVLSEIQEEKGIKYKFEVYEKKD
Description: Inhibitory activity against rat liver Dihydrofolate reductase

[5] = biological target: T4, Bifunctional dihydrofolate reductase-thymidylate synthase (Toxoplasma gondii, UniProt Q07422)
T4 sequence (Q07422 whole entry): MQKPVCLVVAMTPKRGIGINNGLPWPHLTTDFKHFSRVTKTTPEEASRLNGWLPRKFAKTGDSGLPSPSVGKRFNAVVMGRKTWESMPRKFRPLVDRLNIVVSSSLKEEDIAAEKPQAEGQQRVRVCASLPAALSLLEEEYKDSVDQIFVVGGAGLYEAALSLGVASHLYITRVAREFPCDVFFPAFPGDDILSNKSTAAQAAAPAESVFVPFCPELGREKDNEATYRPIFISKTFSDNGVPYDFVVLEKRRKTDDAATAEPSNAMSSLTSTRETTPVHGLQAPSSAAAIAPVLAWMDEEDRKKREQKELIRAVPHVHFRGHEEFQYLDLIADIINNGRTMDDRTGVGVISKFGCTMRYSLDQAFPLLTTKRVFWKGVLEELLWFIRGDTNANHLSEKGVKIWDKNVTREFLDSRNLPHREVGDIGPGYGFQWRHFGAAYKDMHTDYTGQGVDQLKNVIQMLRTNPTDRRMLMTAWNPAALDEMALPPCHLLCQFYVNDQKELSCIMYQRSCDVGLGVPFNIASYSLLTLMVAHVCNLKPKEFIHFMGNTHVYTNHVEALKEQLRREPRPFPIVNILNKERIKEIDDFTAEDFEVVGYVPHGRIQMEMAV
Description: Inhibitory activity against Toxoplasma gondii Dihydrofolate reductase

Dihydrofolate reductase [6] = biological target: T1, Dihydrofolate reductase; assay: Inhibitory activity against Wild-type human DHFR

Compound | Ki (Dihydrofolate reductase [1]) | Ki (Dihydrofolate reductase [2]) | IC50 (Dihydrofolate reductase [3]) | IC50 (Dihydrofolate reductase [4]) | IC50 [5] | Ki (Dihydrofolate reductase [6])
COc1ccc(OC)c(C#Cc2cccc3nc(N)nc(N)c23)c1 | 140 nM | > 500 nM | > 18000 nM | > 18000 nM | > 18000 nM | 
Nc1nc(N)c2c(C#Cc3ccccc3)cccc2n1 | 96.3 nM |  | > 30000 nM | > 30000 nM | > 30000 nM | > 500 nM
COc1ccc(OC)c(NCc2cccc3nc(N)nc(N)c23)c1 | 33 nM |  | > 5000 nM | > 5000 nM | > 5000 nM | 
COc1ccc(OC)c(CCc2cccc3nc(N)nc(N)c23)c1 | 4.2 nM | 41 nM | 19000 nM | 4100 nM | 5900 nM | 
COc1cc(NCc2cccc3nc(N)nc(N)c23)cc(OC)c1OC | 310 nM | > 500 nM | > 20000 nM | > 20000 nM | > 20000 nM | 
COc1ccc(OC)c(Cc2cnc3nc(N)nc(N)c3c2C)c1 [PIRITREXIM] | 38 nM |  |  |  |  | 33 nM
COc1cc(N(C)Cc2cccc3nc(N)nc(N)c23)cc(OC)c1OC | 49 nM | > 500 nM | > 20000 nM | 53000 nM | > 20000 nM | 
Nc1nc(N)c2c(/C=C/c3ccccc3)cccc2n1 | 1.8 nM |  | 10000 nM | 1500 nM | 1200 nM | 
COc1ccc(OC)c(N(C)Cc2cccc3nc(N)nc(N)c23)c1 | 250 nM | > 500 nM | > 40000 nM | 84000 nM | > 40000 nM | 
Nc1nc(N)c2c(CNc3ccc(C(=O)NC(CCC(=O)O)C(=O)O)cc3)cccc2n1 (centres undefined) | 2.7 nM |  |  |  |  | 0.54 nM
Nc1nc(N)c2cc(CNc3ccc(C(=O)NC(CCC(=O)O)C(=O)O)cc3)ccc2n1 (centres undefined) | 0.01 nM |  |  |  |  | 0.00089 nM
COc1cc(CCc2cccc3nc(N)nc(N)c23)cc(OC)c1OC | 4.3 nM | 72 nM | 14000 nM | 3700 nM | 930 nM | 
Nc1nc(N)c2c(CCc3ccccc3)cccc2n1 | 2.9 nM | 23 nM | 3200 nM | 510 nM | 370 nM | 
